Structures are written as SMILES. pEC50: −log10 of the molar value.

Here are results for twelve compounds from patent publication US20110190269A1, “GAMMA SECRETASE MODULATORS” (priority 2010, published 2011).

This assay relates to γ-secretase. The assay can be described thus: Cellular γ-secretase assay (inhibition of Aβ42 secretion). In kind it is cell-based. To be noted: human neuroglioma H4 cells overexpressing human APP, 22 hrs incubation. An outline of the steps:
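H4 neuroglioma cells overexpressing human APP got a ten-point compound dilution (0.4% DMSO final) for 22 h at 37 °C. Secreted Aβ42 in the supernatant was measured by electrochemiluminescence sandwich immunoassay (capture biotinylated 6E10, detection ruthenylated BAP15). IC50 came from a nonlinear regression fit.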
On to `COc1cc(Nc2nc3c(-c4ccc(Cl)cc4)cc(C4CC4)cn3n2)ccc1-n1cnc(C)c1` [Example 117, [8-(4-Chloro-phenyl)-6-cyclopropyl-[1,2,4]triazolo[1,5-a]pyridin-2-yl]-[3-methoxy-4-(4-methyl-imidazol-1-yl)-phenyl]-amine], for which the pEC50 was 7.19.
The same measure for `COc1cc(Nc2nc3c(-c4ccc(F)cc4)cc(C4CC4)cn3n2)ccc1-n1cnc(C)c1` [Example 118, [6-Cyclopropyl-8-(4-fluoro-phenyl)-[1,2,4]triazolo[1,5-a]pyridin-2-yl]-[3-methoxy-4-(4-methyl-imidazol-1-yl)-phenyl]-amine]: 7.14.
`COc1cc(Nc2nc3c(-c4ccc(F)cc4)ccc(C(C)(C)O)n3n2)ccc1-n1cnc(C)c1` [Example 119, 2-{8-(4-Fluoro-phenyl)-2-[3-methoxy-4-(4-methyl-imidazol-1-yl)-phenylamino]-[1,2,4]triazolo[1,5-a]pyridin-5-yl}-propan-2-ol] showed a pEC50 of 7.51. Against the preceding compound, the pEC50 is 0.37 log units higher.
The compound `COc1cc(Nc2nc3c(-c4ccc(F)c(F)c4F)cc(C4CC4)cn3n2)ccc1-n1cnc(C)c1` [Example 120, [6-Cyclopropyl-8-(2,3,4-trifluoro-phenyl)-[1,2,4]triazolo[1,5-a]pyridin-2-yl]-[3-methoxy-4-(4-methyl-imidazol-1-yl)-phenyl]-amine] gave a pEC50 of 7.02.
On to `COc1cc(Nc2nc3c(-c4ccc(F)cc4Cl)ccc(C(C)(C)O)n3n2)ccc1-n1cnc(C)c1` [Example 121, 2-{8-(2-Chloro-4-fluoro-phenyl)-2-[3-methoxy-4-(4-methyl-imidazol-1-yl)-phenylamino]-[1,2,4]triazolo[1,5-a]pyridin-5-yl}-propan-2-ol], for which the negative logarithm of the EC50 (pEC50) is 7.12.
With `COc1cc(Nc2nc3c(-c4ccc(F)c(F)c4F)ccc(C(C)(C)O)n3n2)ccc1-n1cnc(C)c1` [Example 122, 2-[2-[3-Methoxy-4-(4-methyl-imidazol-1-yl)-phenylamino]-8-(2,3,4-trifluoro-phenyl)-[1,2,4]triazolo[1,5-a]pyridin-5-yl]-propan-2-ol], the pEC50 is 7.10.
`COc1cc(Nc2nc3c(-c4ccc(F)c(Cl)c4)ccc(C(C)(C)O)n3n2)ccc1-n1cnc(C)c1` [Example 123, 2-{8-(3-Chloro-4-fluoro-phenyl)-2-[3-methoxy-4-(4-methyl-imidazol-1-yl)-phenylamino]-[1,2,4]triazolo[1,5-a]pyridin-5-yl}-propan-2-ol]: the pEC50 was 7.54.
`COc1cc(Nc2nc3n(n2)C(c2ccc(F)cc2)CN(C)C3)ccc1-n1cnc(C)c1` (stereo not drawn) [Example 124, 5-(4-fluorophenyl)-N-(3-methoxy-4-(4-methyl-1H-imidazol-1-yl)phenyl)-7-methyl-5,6,7,8-tetrahydro-[1,2,4]triazolo[1,5-a]pyrazin-2-amine] showed a negative-log EC50 (pEC50) of 6.45.
`COc1cc(Nc2nc3c(-c4ccc(Cl)cc4)cccn3n2)ccc1-n1cnc(C)c1` [Example 125, [8-(4-Chloro-phenyl)-[1,2,4]triazolo[1,5-a]pyridin-2-yl]-[3-methoxy-4-(4-methyl-imidazol-1-yl)-phenyl]-amine]: the pEC50 was 7.30. Against the preceding compound, the pEC50 is 0.85 log units higher.
For the compound `COc1cc(Nc2nc3c(-c4ccc(F)c(F)c4)cccn3n2)ccc1-n1cnc(C)c1` [Example 126, [8-(3,4-Difluoro-phenyl)-[1,2,4]triazolo[1,5-a]pyridin-2-yl]-[3-methoxy-4-(4-methyl-imidazol-1-yl)-phenyl]-amine], the pEC50 is 7.49. This pEC50 and that of the compound before are within 0.2 log units of each other.
In turn, `COc1cc(Nc2nc3c(-c4ccc(Cl)cc4)cccn3n2)ccc1-c1ccnc(C)c1` [Example 127, [8-(4-Chloro-phenyl)-[1,2,4]triazolo[1,5-a]pyridin-2-yl]-[3-methoxy-4-(2-methyl-pyridin-4-yl)-phenyl]-amine] had a pEC50 of 7.41. This pEC50 and that of the compound before are within 0.2 log units of each other.
Compound `COc1cc(Nc2nc3c(-c4ccc(F)c(F)c4)cccn3n2)ccc1-c1ccnc(C)c1` [Example 128, 8-(3,4-Difluorophenyl)-N-(3-methoxy-4-(2-methylpyridin-4-yl)phenyl)-[1,2,4]triazolo[1,5-a]pyridin-2-amine] showed a pEC50 of 7.52.
